This is an account of results in the NIST ThermoML archive (doi:10.1016/j.jct.2007.09.002).

SMILES strings stand for the structures. ± gives the expanded uncertainty stated by the source.

The conditions of this data set: Liquid; Ebulliometric method (Recirculating still).
As for `c1ccccc1` [benzene], the Normal boiling temperature turned out to be 80 ± 0.2 °C.

For the compound `FC(F)(F)c1ccccc1` [(trifluoromethyl)benzene], the Normal boiling temperature was determined as 102.6 ± 0.2 °C. With `CCO` [ethanol], the Normal boiling temperature was 78.6 ± 0.2 °C. With `ClC(Cl)Cl` [trichloromethane], the Normal boiling temperature is 61.0 ± 0.2 °C.
